From patent publication US20260256740A1, “PHARMACEUTICAL COMPOSITION COMPRISING CYCLOHEX-2-ENYLIDENE / 3,3-DIMETHYLINDOLINE COMPOUNDS; METHODS OF TREATING HUMAN DISEASES; AND METHODS OF INDUCING A CALCIUM SENSITIZING EFFECT IN A SUBJECT” (Curadel Surgical Innovations, Inc., priority 2022, published 2026)

Tested on: plasma membrane of living cells
Assay: NIR cellular microscopy of living cells
Type: cell-based
Description: Without being limited by theory, PanLN and PanLN-forte are believed unlikely to directly bind myofilaments.

| SMILES | crossing of the plasma membrane of living cells |
| --- | --- |
| CC1(C)C(/C=C/C2=C(Oc3ccc(CCC(=O)O)cc3)C(=C/C=C3/N(CCC[N+](C)(C)C)c4ccccc4C3(C)C)/CCC2)=[N+](CCC[N+](C)(C)C)c2ccccc21 [PanLN, 2-((E)-2-((E)-2-(4-(2-carboxyethyl)phenoxy)-3-((E)-2-(3,3-dimethyl-1-(3-(trimethylammonio)propyl)indolin-2-ylidene)ethylidene)cyclohex-1-enyl)vinyl)-3,3-dimethyl-1-(3-(trimethylammonio)propyl)-3H-indolium] | does not appear to cross the plasma membrane |
| CC1(C)C(/C=C/C2=C(c3ccc(CCC(=O)O)cc3)C(=C/C=C3/N(CCC[N+](C)(C)C)c4ccccc4C3(C)C)/CCC2)=[N+](CCC[N+](C)(C)C)c2ccccc21 [PanLN-fort, 2-((E)-2-((E)-2-(4-(2-carboxyethyl)phenyl)-3-((E)-2-(3,3-dimethyl-1-(3-(trimethylammonio)propyl)indolin-2-ylidene)ethylidene)cyclohex-1-enyl)vinyl)-3,3-dimethyl-1-(3-(trimethylammonio)propyl)-3H-indolium] | does not appear to cross the plasma membrane |
